Measured values reported in patent US10583137B2, “Triazole DAGLα inhibitors” (THE SCRIPPS RESEARCH INSTITUTE, priority 2015, dated 2020).

Assays:
DAGLβ [1] = target: T1, DAGLβ (Mus musculus (Mouse), UniProt Q91WC9); experiment: time-course of DAGL inhibition and recovery in mice, competitive ABPP with compound 58 probe; assay type: in vivo; conditions: 3 mg/kg
Method: (§1) Inhibition of DAGL in mice with DAGL compounds 14 and 17 was investigated as a function of time as determined by competitive ABPP using the compound 58 probe (1 μM, 30 min).

DAGLα [2] = target: T2, DAGLα (Mus musculus (Mouse), UniProt Q6WQJ1); experiment: as above; assay type: in vivo; conditions: 3 mg/kg
Method: as §1

PAFAH2 = PAFAH2 (Mus musculus (Mouse), UniProt Q8VDG7); experiment: in vivo ABPP coupled to quantitative mass spectrometry (FP-biotin, ReDiMe); conditions: brain proteomes of treated mice
Method: (§2) The extent of these target profiles were confirmed by performing ABPP coupled to high-resolution, quantitative mass spectrometry (MS). Briefly, brain proteomes from compound and vehicle-treated mice were incubated with the serine hydrolase directed activity-based probe FP-biotin, and probe-labeled enzymes were enriched by streptavidin chromatography, digested on bead with trypsin, and the resulting tryptic peptides modified by reductive dimethylation (ReDiMe) of lysine residues using isotopically heavy and light formaldehyde, respectively. In these experiments, inhibited serine hydrolases are identified as enzymes showing low heavy/light ReDiMe ratios.

PLA2G7 = PLA2G7 (Mus musculus (Mouse), UniProt Q60963); experiment: as above; conditions: brain proteomes of treated mice
Method: as §2

ABHD2 = ABHD2 (Mus musculus (Mouse), UniProt Q9QXM0); experiment: as above; conditions: brain proteomes of treated mice
Method: as §2

ABHD6 = ABHD6 (Mus musculus (Mouse), UniProt Q8R2Y0); experiment: in vivo inhibition, brain tissue analyzed by ABPP; conditions: mice, intraperitoneal 3-50 mg/kg, 4 hr
Method: (§3) Mice were administered DAGL test compounds and the activity and selectivity of compounds 14 and 17 in vivo was assessed.
(§4) Compound 14, 17 or vehicle was administered intraperitoneally to male C57BL/6 mice across a dose range of 3-50 mg/kg. After 4 hr, the mice were sacrificed and brain tissue analyzed by ABPP, generally as described in Example 16, with compound probe 58, HT-01 probe, and FP-Rh probe.

DAGLβ [3] = target: T1, DAGLβ; experiment: in vivo inhibition, brain tissue analyzed by ABPP; conditions: mice, intraperitoneal 3-50 mg/kg, 4 hr
Method: as §3, §4

DAGLα [4] = target: T2, DAGLα; experiment: in vivo inhibition, brain tissue analyzed by ABPP; conditions: male C57BL/6 mice, intraperitoneal, 4 hr; for ED50: mouse, ip
Method: as §3, §4

[5] = tested on: DSE at parallel fiber to Purkinje cell synapses; experiment: depolarization-induced suppression of excitation (DSE) in acute cerebellar slices; conditions: purkinje; bath application to cerebellar slices 30 min before recordings; read-out: half-maximal inhibition of DSE
From the text: Various forms of synaptic plasticity are regulated by 2-AG signaling, included depolarization-induced suppression of excitation (DSE) and inhibition (DSI). DSE was examined at parallel fiber (PF) to Purkinje cell (PC) synapses in acute cerebellar slices. A brief depolarization of PCs induced robust transient DSE at PF-PC synapses in vehicle treated cerebellar slices (FIG. 7A).

BCHE = BCHE (Mus musculus (Mouse), UniProt Q03311); experiment: in vivo ABPP coupled to quantitative mass spectrometry (FP-biotin, ReDiMe); conditions: brain proteomes of treated mice
Method: as §2

LIPE = LIPE (Mus musculus (Mouse), UniProt P54310); experiment: as above; conditions: brain proteomes of treated mice
Method: as §2

DAGL enzymes = experiment: brain proteomes of treated mice conjugated to Cy5 fluorophore by CuAAC; assay type: in vivo, mouse

T2 sequence (Q6WQJ1 whole entry): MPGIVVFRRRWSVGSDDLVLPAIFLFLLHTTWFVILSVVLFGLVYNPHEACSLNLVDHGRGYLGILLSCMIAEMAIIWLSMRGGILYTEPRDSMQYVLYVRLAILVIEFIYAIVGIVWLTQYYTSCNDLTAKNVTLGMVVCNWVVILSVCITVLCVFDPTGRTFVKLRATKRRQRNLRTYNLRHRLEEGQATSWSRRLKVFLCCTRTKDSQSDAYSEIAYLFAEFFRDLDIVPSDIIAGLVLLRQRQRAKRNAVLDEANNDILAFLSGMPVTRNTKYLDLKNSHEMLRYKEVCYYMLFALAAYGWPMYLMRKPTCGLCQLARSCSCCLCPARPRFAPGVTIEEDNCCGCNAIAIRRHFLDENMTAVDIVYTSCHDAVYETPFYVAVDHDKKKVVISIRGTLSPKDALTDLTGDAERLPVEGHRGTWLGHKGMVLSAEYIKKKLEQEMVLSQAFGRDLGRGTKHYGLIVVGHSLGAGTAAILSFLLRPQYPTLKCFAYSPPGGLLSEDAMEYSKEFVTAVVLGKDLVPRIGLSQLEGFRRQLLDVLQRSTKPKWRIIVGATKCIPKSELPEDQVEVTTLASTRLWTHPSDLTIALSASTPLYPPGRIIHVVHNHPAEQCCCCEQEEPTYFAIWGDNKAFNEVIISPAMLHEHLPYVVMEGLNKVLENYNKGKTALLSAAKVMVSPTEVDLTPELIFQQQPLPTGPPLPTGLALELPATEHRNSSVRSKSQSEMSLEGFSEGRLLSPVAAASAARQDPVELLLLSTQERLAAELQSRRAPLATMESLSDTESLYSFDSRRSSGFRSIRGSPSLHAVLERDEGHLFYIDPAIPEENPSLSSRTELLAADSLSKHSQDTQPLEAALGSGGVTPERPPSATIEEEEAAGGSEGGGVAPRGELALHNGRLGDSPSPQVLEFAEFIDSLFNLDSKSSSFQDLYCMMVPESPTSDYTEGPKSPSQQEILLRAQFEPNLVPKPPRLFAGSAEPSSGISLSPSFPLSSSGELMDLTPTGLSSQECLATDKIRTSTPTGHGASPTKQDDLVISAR
T1 sequence (Q91WC9 whole entry): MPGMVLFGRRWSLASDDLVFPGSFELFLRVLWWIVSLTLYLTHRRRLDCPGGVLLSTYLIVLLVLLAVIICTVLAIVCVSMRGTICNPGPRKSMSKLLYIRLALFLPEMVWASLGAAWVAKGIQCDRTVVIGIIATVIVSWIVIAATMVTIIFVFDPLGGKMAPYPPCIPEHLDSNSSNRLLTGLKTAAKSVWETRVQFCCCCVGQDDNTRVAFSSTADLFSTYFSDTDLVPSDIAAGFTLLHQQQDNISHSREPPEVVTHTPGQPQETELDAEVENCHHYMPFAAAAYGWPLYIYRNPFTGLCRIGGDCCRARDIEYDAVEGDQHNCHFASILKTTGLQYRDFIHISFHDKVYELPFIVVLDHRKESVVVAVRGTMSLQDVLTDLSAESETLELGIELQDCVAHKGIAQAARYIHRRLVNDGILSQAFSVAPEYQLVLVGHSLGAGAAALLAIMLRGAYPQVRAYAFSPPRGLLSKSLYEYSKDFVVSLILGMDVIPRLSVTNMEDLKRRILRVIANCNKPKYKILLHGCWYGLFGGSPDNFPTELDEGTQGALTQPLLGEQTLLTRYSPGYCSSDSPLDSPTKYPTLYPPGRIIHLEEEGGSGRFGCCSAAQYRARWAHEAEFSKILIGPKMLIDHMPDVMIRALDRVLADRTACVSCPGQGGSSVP
ABHD6, sequence (Q8R2Y0 whole entry): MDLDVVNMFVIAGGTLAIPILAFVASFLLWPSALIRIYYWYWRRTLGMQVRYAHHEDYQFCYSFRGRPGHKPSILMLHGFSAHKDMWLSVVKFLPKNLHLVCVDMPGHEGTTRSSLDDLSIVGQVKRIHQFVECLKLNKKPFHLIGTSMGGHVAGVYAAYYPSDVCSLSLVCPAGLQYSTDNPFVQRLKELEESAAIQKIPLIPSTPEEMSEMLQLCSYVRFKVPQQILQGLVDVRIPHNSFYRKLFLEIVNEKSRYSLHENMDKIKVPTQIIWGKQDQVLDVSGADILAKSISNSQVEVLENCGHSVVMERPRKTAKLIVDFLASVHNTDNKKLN
PAFAH2, sequence (Q8VDG7 whole entry): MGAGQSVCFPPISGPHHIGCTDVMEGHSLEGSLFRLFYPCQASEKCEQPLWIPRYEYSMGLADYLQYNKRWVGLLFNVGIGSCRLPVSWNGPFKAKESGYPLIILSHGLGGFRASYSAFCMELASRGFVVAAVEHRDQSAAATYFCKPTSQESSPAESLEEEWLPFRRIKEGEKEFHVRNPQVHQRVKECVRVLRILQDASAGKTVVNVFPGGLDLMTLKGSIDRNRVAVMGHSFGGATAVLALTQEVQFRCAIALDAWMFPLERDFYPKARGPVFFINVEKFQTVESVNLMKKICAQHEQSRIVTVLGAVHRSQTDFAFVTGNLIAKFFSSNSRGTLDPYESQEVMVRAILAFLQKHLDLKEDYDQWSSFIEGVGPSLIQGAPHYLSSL
BCHE, sequence (Q03311 30-603 limits assumed): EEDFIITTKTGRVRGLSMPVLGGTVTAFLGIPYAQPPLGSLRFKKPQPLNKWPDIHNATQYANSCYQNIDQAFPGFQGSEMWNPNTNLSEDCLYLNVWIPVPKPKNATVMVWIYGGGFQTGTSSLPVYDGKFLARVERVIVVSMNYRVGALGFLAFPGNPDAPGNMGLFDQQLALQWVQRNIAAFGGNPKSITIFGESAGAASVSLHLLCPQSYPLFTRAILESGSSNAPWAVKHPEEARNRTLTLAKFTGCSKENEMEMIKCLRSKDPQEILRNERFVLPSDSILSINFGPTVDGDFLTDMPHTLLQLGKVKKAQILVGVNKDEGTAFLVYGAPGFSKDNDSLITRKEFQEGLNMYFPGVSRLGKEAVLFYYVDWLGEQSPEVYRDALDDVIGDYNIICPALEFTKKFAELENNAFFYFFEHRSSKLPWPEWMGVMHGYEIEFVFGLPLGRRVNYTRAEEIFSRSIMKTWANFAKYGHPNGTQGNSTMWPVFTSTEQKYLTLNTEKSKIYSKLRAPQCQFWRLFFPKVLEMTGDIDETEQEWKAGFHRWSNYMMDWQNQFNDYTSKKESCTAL
PLA2G7, sequence (Q60963 22-440): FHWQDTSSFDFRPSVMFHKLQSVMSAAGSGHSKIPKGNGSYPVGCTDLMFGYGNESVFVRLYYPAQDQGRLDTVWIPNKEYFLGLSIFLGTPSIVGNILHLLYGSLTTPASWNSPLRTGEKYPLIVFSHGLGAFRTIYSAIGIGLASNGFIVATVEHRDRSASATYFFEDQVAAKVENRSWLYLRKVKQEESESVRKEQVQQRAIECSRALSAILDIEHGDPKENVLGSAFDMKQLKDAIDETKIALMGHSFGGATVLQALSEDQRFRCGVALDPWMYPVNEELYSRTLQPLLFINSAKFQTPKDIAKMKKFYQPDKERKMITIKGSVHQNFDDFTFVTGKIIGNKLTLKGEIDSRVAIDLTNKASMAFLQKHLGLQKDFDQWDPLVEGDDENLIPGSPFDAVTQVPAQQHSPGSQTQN
LIPE, sequence (P54310 whole entry): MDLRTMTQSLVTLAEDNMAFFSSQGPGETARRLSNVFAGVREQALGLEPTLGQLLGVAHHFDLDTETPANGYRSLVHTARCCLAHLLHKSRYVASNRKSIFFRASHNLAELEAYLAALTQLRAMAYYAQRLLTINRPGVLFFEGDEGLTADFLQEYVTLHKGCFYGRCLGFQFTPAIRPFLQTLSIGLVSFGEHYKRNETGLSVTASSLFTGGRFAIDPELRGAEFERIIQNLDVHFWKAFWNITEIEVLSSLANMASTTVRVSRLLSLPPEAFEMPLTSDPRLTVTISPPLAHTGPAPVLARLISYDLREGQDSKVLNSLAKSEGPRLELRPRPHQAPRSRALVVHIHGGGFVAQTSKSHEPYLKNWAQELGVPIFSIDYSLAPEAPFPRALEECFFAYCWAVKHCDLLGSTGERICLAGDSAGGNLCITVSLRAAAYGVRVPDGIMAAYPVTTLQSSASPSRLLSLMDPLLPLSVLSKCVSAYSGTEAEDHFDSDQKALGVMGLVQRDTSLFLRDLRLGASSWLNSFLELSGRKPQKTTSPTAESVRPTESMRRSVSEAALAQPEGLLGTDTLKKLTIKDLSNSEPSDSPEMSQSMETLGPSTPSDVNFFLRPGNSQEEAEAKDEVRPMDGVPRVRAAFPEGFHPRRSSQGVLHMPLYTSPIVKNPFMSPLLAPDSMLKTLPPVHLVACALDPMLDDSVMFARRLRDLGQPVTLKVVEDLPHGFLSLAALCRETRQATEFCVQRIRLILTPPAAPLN
ABHD2, sequence (Q9QXM0 whole entry): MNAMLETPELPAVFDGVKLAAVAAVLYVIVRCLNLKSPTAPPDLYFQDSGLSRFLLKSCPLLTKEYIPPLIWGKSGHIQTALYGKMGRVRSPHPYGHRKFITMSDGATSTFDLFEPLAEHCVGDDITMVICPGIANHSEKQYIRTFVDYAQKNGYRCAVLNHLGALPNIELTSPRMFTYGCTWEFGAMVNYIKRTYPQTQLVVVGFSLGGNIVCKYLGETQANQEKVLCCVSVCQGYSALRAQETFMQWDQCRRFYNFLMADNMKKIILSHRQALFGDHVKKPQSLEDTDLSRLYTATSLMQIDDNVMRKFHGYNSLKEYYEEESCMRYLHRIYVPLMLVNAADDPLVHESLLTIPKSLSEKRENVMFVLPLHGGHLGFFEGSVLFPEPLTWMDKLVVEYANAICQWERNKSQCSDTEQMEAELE

Compound	inhibition of DAGLβ (DAGLβ [1])	time by which DAGLα enzyme activity recovered (DAGLα [2]) [h]	time to substantial inhibition of DAGLα after administration (DAGLα [2]) [min]	heavy/light ReDiMe ratio, PAFAH2 (off-target) (PAFAH2)	heavy/light ReDiMe ratio, PLA2G7 (off-target) (PLA2G7)	heavy/light ReDiMe ratio, ABHD2 (off-target) (ABHD2)	inhibition of ABHD6 in vivo (ABHD6)	inhibition of DAGLβ in vivo (DAGLβ [3])	dose with full inhibition of DAGLα (DAGLα [4]) [mg/kg]	ED50 (DAGLα [4]) [mg/kg]	IC50 [5] [nM]	heavy/light ReDiMe ratio, BCHE (off-target) (BCHE)	heavy/light ReDiMe ratio, LIPE (off-target) (LIPE)	labeling of DAGL enzymes in brain proteomes of treated mice (DAGL enzymes)
CC(C)(C)OC(=O)N1CCN(C(=O)n2cc(-c3ccc(OC(F)(F)F)cc3)nn2)C(Cc2ccccc2)C1 (stereo not shown) [Compound 17, tert-Butyl 3-benzyl-4-(4-(4-(trifluoromethoxy)phenyl)-1H-1,2,3-triazole-1-carbonyl)piperazine-1-carboxylate]	inhibited	≤ 4	≤ 30	< 0.5	< 0.5	< 0.5	inhibited	inhibited	30 to 50	5 to 10	180	–	–	–
C#CCO[C@@H]1CC[C@H](Cc2ccccc2)N(C(=O)n2ncc(C(O)(c3ccc(F)cc3)c3ccc(F)cc3)n2)C1 [Compound 14, ((2R,5R)-2-Benzyl-5-(prop-2-ynyloxy)piperidin-1-yl)(4-(bis(4-fluorophenyl)(hydroxy)methyl)-2H-1,2,3-triazol-2-yl)methanone]	–	–	–	–	–	–	inhibited	inhibited	30 to 50	5 to 10	1100	< 0.5	< 0.5	direct, dose-dependent labeling
